Calls of active or inactive are those of the source. No cut-off for these calls is given here.
How the values were obtained:
[1] = molecular target: Fibroblast growth factor receptor 3 (Homo sapiens) (UniProt P22607); assay: Inhibition of FGFR3 (unknown origin) at 10 uM by biochemical hotspot kinase assay relative to control
[2] = molecular target: Serine/threonine-protein kinase B-raf (Homo sapiens) (UniProt P15056); assay: Inhibition of B-RAF (unknown origin) at 10 uM by biochemical hotspot kinase assay relative to control
[3] = molecular target: Vascular endothelial growth factor receptor 1 (Homo sapiens) (UniProt P17948); assay: Inhibition of VEGFR1 (unknown origin) at 10 uM by biochemical hotspot kinase assay relative to control
SNB-75 = assay: Antiproliferative activity against human SNB-75 cells assessed as cell growth inhibition at 10 uM by SRB assay relative to control; assay type: functional
[4] = molecular target: RAF proto-oncogene serine/threonine-protein kinase (Homo sapiens) (UniProt P04049); assay: Inhibition of c-RAF (unknown origin) at 10 uM by biochemical hotspot kinase assay relative to control
[5] = molecular target: Death-associated protein kinase 2 (Homo sapiens) (UniProt Q9UIK4); assay: Inhibition of DAPK2 (unknown origin) at 10 uM by biochemical hotspot kinase assay relative to control
[6] = molecular target: Tyrosine-protein kinase ABL1 (Homo sapiens) (UniProt P00519); assay: Inhibition of ABL1 (unknown origin) at 10 uM by biochemical hotspot kinase assay
[7] = molecular target: Mitogen-activated protein kinase 1 (Homo sapiens) (UniProt P28482); assay: Inhibition of ERK2 (unknown origin) at 10 uM by biochemical hotspot kinase assay relative to control
[8] = molecular target: Hepatocyte growth factor receptor (Homo sapiens) (UniProt P08581); assay: Inhibition of c-MET (unknown origin) at 10 uM by biochemical hotspot kinase assay relative to control
[9] = molecular target: Serine/threonine-protein kinase 17A (Homo sapiens) (UniProt Q9UEE5); assay: Inhibition of DRAK1 (unknown origin) at 10 uM by biochemical hotspot kinase assay relative to control
[10] = molecular target: Tyrosine-protein kinase Lyn (Homo sapiens) (UniProt P07948); assay: Inhibition of LYN (unknown origin) at 10 uM by biochemical hotspot kinase assay
[11] = molecular target: Death-associated protein kinase 1 (Homo sapiens) (UniProt P53355); assay: Inhibition of DAPK1 (unknown origin) at 10 uM by biochemical hotspot kinase assay
HT-29 = assay: Induction of cell cycle arrest in human HT-29 cells assessed as accumulation of cells at G1 phase at 5 uM incubated for 24 hrs by PI staining based analysis (reference value: 40.3%); assay type: functional
[12] = molecular target: cAMP-dependent protein kinase (PKA) (Homo sapiens) (UniProt P22694+P17612+P22612); assay: Inhibition of PKA (unknown origin) at 10 uM by biochemical hotspot kinase assay; assay type: protein assay
[13] = molecular target: Protein kinase C alpha type (Homo sapiens) (UniProt P17252); assay: Inhibition of PKCa (unknown origin) at 10 uM by biochemical hotspot kinase assay
TK-10 = assay: Antiproliferative activity against human TK-10 cells assessed as inhibition of cell growth at 10 uM by SRB assay relative to control; assay type: functional
T47D = assay: Antiproliferative activity against estrogen receptor positive human T47D cells assessed as inhibition of cell growth at 10 uM by SRB assay; assay type: functional, cell-based
HOP-92 = assay: Antiproliferative activity against human HOP-92 cells assessed as cell growth inhibition at 10 uM by SRB assay relative to control; assay type: functional
NCI-H226 = assay: Antiproliferative activity against human NCI-H226 cells assessed as cell growth inhibition at 10 uM by SRB assay relative to control; assay type: functional; settings: pooled result: one value given for 4 cell lines, strains, targets or settings
SF-268 = assay: Antiproliferative activity against human SF-268 cells assessed as cell growth inhibition at 10 uM by SRB assay relative to control; assay type: functional

Hepatocyte growth factor receptor (Homo sapiens), sequence (P08581 whole entry): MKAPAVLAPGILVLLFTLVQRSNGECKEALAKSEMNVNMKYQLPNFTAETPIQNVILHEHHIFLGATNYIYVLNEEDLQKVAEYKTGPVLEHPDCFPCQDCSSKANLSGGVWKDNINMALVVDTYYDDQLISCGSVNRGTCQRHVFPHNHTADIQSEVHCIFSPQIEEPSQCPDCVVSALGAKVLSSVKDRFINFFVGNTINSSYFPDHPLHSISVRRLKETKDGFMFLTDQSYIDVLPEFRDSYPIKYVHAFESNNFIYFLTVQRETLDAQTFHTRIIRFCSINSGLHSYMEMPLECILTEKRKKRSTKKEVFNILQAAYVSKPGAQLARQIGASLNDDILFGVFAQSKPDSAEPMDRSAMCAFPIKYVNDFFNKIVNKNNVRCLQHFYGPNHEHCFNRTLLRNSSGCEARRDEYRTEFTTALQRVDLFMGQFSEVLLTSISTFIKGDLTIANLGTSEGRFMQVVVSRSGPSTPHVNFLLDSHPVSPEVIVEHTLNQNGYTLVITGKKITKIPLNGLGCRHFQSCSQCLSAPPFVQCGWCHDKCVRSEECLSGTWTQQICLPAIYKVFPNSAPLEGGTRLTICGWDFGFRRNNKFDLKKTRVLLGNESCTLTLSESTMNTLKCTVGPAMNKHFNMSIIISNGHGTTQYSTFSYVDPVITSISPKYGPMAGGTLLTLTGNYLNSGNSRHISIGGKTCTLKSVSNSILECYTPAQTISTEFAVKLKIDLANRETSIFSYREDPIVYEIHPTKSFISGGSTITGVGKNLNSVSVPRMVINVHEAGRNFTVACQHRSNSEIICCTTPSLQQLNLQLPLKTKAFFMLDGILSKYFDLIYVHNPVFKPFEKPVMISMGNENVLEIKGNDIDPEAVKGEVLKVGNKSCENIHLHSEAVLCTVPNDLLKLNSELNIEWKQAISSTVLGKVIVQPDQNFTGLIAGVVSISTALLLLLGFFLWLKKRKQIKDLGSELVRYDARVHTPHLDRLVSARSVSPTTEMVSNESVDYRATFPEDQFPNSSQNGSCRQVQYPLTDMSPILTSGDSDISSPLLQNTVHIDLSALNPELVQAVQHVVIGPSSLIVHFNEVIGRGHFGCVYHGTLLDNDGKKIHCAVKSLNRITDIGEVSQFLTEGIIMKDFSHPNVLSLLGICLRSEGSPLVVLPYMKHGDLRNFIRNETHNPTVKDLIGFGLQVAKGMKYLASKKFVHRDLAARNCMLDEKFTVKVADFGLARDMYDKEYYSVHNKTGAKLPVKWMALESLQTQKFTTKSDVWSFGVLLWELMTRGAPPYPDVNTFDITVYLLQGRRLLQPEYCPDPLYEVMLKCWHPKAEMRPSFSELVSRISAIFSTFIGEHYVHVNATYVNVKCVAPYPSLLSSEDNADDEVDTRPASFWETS
Mitogen-activated protein kinase 1 (Homo sapiens), sequence (P28482 whole entry): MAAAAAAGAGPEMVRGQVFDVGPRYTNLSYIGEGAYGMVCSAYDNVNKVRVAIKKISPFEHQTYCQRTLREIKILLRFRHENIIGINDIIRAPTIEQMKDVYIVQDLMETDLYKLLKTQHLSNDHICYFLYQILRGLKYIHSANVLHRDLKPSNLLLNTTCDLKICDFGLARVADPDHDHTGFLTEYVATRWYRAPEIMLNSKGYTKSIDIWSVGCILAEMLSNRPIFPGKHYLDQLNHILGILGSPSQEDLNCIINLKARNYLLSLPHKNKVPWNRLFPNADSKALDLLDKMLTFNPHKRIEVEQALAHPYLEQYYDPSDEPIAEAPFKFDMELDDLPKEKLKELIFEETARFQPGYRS
Serine/threonine-protein kinase B-raf (Homo sapiens), sequence (P15056 whole entry): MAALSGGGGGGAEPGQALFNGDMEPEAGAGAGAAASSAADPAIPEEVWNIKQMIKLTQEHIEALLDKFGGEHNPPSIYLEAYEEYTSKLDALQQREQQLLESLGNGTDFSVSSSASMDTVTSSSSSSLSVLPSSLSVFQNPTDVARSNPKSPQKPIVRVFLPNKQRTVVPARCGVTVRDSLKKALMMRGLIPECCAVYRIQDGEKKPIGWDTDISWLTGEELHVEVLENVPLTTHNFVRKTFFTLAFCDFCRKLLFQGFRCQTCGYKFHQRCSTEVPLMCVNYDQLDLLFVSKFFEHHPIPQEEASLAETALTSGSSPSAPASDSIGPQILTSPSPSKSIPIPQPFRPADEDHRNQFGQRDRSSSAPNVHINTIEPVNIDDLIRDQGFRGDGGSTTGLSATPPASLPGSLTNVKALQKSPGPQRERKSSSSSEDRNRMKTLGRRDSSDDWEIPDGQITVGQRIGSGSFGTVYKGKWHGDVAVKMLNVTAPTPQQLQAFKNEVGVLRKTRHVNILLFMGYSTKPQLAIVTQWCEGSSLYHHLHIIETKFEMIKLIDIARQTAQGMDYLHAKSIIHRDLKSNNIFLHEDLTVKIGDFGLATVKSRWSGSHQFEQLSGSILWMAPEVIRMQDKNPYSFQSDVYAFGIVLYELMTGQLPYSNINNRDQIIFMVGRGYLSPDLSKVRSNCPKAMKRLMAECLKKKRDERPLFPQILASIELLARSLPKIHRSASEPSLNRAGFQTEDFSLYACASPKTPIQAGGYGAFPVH
RAF proto-oncogene serine/threonine-protein kinase (Homo sapiens), sequence (P04049 whole entry): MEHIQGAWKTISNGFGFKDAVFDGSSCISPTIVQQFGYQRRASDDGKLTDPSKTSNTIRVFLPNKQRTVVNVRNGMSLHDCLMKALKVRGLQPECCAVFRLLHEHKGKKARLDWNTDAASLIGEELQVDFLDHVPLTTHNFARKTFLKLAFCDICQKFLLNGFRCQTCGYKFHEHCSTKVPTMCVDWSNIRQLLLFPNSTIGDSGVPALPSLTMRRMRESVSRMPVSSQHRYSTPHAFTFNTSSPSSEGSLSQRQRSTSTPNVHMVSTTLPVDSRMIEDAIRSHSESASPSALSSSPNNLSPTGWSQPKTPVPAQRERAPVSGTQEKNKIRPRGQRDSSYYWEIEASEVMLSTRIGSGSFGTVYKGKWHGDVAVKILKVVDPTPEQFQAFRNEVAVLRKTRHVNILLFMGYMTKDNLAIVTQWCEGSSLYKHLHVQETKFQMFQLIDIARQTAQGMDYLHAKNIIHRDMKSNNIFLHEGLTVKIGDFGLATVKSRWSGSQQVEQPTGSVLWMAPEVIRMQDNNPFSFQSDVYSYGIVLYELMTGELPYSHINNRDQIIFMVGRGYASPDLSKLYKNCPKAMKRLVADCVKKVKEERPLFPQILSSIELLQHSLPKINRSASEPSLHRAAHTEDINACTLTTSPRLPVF
Serine/threonine-protein kinase 17A (Homo sapiens), sequence (Q9UEE5 whole entry): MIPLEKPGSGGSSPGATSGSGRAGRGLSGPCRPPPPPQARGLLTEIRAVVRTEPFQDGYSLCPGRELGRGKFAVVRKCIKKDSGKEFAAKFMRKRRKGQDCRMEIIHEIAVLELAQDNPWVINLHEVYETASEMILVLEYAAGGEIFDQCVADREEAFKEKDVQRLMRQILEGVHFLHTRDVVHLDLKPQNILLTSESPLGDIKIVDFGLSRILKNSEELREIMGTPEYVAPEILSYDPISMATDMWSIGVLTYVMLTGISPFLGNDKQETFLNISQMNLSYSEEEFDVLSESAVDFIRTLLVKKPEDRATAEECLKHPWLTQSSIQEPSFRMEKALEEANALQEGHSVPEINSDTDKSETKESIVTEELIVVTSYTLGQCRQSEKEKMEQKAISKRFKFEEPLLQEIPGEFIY
Fibroblast growth factor receptor 3 (Homo sapiens), sequence (P22607 23-806 limits assumed): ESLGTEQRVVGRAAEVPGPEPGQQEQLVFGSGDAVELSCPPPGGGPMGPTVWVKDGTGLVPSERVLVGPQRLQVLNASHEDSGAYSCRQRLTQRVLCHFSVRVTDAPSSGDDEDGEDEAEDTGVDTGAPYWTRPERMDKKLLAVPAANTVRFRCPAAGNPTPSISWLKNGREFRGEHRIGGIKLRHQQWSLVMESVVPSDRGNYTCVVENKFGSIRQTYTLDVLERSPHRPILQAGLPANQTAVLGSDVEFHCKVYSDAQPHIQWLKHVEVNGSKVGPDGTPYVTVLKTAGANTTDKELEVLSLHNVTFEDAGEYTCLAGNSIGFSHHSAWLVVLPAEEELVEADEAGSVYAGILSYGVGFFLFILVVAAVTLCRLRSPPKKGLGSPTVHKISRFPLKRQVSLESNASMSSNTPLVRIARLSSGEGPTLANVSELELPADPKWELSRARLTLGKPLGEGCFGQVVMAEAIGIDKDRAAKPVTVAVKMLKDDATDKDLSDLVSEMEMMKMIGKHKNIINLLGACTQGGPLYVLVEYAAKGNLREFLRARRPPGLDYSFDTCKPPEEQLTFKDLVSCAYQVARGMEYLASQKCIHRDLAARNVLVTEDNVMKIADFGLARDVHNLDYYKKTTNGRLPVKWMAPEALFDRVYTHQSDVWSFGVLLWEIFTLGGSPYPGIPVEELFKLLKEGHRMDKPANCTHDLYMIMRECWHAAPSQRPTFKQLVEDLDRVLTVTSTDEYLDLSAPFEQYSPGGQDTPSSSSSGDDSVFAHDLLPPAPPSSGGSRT

| inhibition [1] [%] | inhibition [2] [%] | inhibition [3] [%] | inhibition [4] [%] | inhibition [6] | inhibition [7] [%] | inhibition [8] [%] | inhibition [9] [%] | inhibition [10] | inhibition [12] | inhibition [13] | Compound | inhibition at 10 µM (SNB-75) [%] | inhibition [5] [%] | inhibition [11] | Activity (HT-29) [%] | inhibition at 10 µM (TK-10) [%] | inhibition (T47D) | inhibition at 10 µM (HOP-92) [%] | inhibition at 10 µM (NCI-H226) [%] | inhibition at 10 µM (SF-268) [%] |
| --- | --- | --- | --- | --- | --- | --- | --- | --- | --- | --- | --- | --- | --- | --- | --- | --- | --- | --- | --- | --- |
| 0.26 | 34.3 | 14.9 | 3.26 | inactive | 17.2 | 27.1 | 3.24 | inactive | inactive | inactive | COc1cc2oc(-c3cccc(C(=O)Nc4ccc(C)cc4)c3)cc(=O)c2c(OC)c1OC | > 50 | 0.74 | inactive | 59.1 | – | – | – | – | – |
| – | – | – | – | – | – | – | – | – | – | – | COc1cc2oc(-c3cccc(C(=O)Nc4ccc(Cl)cc4)c3)cc(=O)c2c(OC)c1OC | – | – | – | – | 61.4 | Active | 87.2 | 51.8 | > 50 |
